Earlier results on six compounds are cited in article PMC3138524 (European journal of pharmacology, 2011).

As usually defined, the EC50 is the concentration giving half of the maximal effect. As a reminder, the IC50 is the concentration needed to halve the response being measured.

What all share (assay type): cell-based, HEK293
Data set [1] concerns the target T1, MC5R (Homo sapiens, UniProt P33032). The settings on record: read-out: Functional Assays cAMP EC50; n = 2.
In data set [2] the target is T2, MC4R (Homo sapiens, UniProt P32245). The following applies: read-out: Functional Assays cAMP EC50; n = 2.
Data set [3] addresses T3, MC3R (Homo sapiens, UniProt P41968). The settings on record: read-out: Binding Affinities IC50; n = 2.
Data set [4] addresses T2, MC4R. The following applies: read-out: Binding Affinities IC50; n = 2.
The target of data set [5] is T1, MC5R. The settings on record: read-out: Binding Affinities IC50; n = 2.
In data set [6] the target is T3, MC3R. The settings on record: read-out: Functional Assays cAMP EC50; n = 2.

Positions of bridges follow the written chain, without caps; N, C: chain ends. Non-standard residues stand in square brackets, D forms with d. d2Nal = N[C@H](Cc1ccc2ccccc2c1)C(=O)O; Pen = CC(C)(S)[C@H](N)C(=O)O; Nle = CCCC[C@H](N)C(=O)O

T1 sequence (P33032 whole entry): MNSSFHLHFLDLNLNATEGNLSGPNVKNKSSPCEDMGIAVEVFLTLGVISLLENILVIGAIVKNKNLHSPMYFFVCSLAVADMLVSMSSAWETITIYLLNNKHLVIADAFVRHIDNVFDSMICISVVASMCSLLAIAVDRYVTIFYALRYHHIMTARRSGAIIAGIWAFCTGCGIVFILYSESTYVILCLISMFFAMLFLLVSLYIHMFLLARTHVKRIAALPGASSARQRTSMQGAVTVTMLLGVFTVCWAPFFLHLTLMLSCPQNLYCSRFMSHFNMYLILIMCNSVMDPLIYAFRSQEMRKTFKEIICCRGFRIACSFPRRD
T2 sequence (P32245 whole entry): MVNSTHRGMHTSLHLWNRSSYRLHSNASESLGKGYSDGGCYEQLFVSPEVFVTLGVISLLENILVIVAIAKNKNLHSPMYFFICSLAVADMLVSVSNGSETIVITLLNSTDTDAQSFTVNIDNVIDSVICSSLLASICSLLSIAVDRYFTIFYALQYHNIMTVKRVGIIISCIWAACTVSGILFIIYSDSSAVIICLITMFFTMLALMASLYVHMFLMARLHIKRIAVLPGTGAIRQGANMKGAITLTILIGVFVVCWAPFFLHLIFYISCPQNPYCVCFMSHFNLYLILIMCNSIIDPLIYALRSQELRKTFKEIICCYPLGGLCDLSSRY
T3 sequence (P41968 whole entry): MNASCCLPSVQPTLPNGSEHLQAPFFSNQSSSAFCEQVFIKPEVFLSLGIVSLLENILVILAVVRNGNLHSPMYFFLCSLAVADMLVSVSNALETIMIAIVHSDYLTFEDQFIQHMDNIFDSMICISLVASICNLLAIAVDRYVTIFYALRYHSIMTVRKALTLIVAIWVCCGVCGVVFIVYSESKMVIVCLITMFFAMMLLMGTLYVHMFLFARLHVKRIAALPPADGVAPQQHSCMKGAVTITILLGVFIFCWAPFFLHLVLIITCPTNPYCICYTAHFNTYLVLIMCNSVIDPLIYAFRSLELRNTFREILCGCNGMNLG

Regarding `N=C(N)NCCC[C@@H]1NC(=O)[C@@H](Cc2ccccc2)NC(=O)[C@@H]2CCCN2C(=O)[C@@H](NC(=O)[C@H](N)Cc2ccccc2)CC(=O)NCCCC[C@@H](C(N)=O)NC(=O)[C@H](Cc2c[nH]c3ccccc23)NC1=O` [compound 3, D-Phe-c[Asp-Pro-D-Phe-Arg-Trp-Lys]-NH2], the EC50 was greater than 1000 nM in data set [1] and greater than 10000 nM in data set [2].
Take “Ac-Nle-c[Asp-Aba-D-Phe-Arg-Trp-Lys]-NH2 [compound 4]”: the IC50 in data set [3] was 50 nM.
For “Ac-[Nle][Pen]EH[d2Nal]RWCPKD-NH2 (disulfide 2-8) [compound 5]”, in data set [3], the 50% inhibitory concentration (IC50) was 3 nM.
For “Ac-c[Cys-His-D-Phe-Cys]-N^α-Gubu-D-Trp-NH2 [compound 7]”, in data set [2], the EC50 was greater than 1000 nM. In data set [4], the IC50 is 0.7 nM.
As for “Ac-c[Cys-His-D-Phe-N^α-Gubu-Cys]-Trp-NH2 [compound 6]”, the half-maximal inhibitory concentration (IC50) in data set [4] was 1.8 nM.
As to “Tyr-Val-Nle-Gly-His-D-Nal(2′)-Arg-Trp-Asp-Arg-Phe-Gly-NH2 [compound 1]”, the EC50 in data set [1] and in data set [6] was greater than 10000 nM each time. In addition, the concentration for half-maximal inhibition (IC50) in data set [3] was 0.84 nM; in data set [5] it was 1 nM.
